Results on 15 compounds are retold here after PubChem BioAssay (NCI).

Assay in all cases: growth of human tumour cells (NCI), 48 h
Test [1] deals with NCI/ADR-RES ovarian.
For test [2], the system named is UO-31 renal.
Test [3] relates to U251 CNS.
Test [4] has as its system SK-MEL-28 melanoma.
The subject of test [5] is COLO 205 colon.
Test [6] relates to OVCAR-8 ovarian.
Test [7] deals with LOX IMVI melanoma.
For test [8], the system named is 786-0 renal.
In test [9] the test system is HCT-116 colon.
For test [10], the system named is UACC-62 melanoma.

Structures are written as SMILES. Where “and” joins values, the source holds several entries; their conditions need not be identical. Equal values may be shown once.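 Where inhibition never reached the appropriate level, the endpoint shown equals the highest concentration tested. Otherwise, values were interpolated linearly from a five-concentration, 48-hour dose response in 96-well plates. GI50: concentration for 50% inhibition of growth. TGI marks complete inhibition of growth.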

Regarding `COc1ccc(C2c3c(-c4ccccc4)nn(-c4ccccc4)c3Oc3ncn4nc(CC#N)nc4c32)cc1OC` (centres undefined), the GI50 is 26.2 µM and 3.6 µM in test [1]; > 100 µM in test [2]; 23.5 µM and 3.62 µM in test [3]; > 100 µM in test [5]; 15.7 µM and 3.63 µM in test [7]; 8.4 µM and 2.09 µM in test [8]. For the same compound, the GI50 in test [9] was 40.7 µM and 9.55 µM. For the same compound, the TGI was 67.5 µM and > 45.4 µM in test [1]; > 100 µM in test [2]; 63.8 µM and 16.7 µM in test [3]; > 100 µM in test [4]; > 100 µM in test [5]; > 100 µM in [6]. Moreover, the TGI in test [7] is 35.8 µM and 26.3 µM; in test [8], 20.7 µM and 5.51 µM; in [9], > 100 µM.
As for `Nc1c2ccccc2nc2ccccc12` (tested in a mixture with another compound), the GI50 in test [1] was 1.74 µM; in test [2], 1.41 µM; in test [3], 2.68 µM; in [4] it was 1.99 µM; in test [5] it was 0.753 µM; in test [6], 0.891 µM. For the same compound, the GI50 in test [7] is 1.87 µM; in test [8] it was 2.45 µM; in [9], 0.849 µM; in test [10] it was 1.62 µM. Further, the TGI worked out at 6 µM in test [1]; 3.84 µM in test [2]; 10.9 µM in [3]; 3.86 µM in [4]; 2.08 µM in [5]; 6.44 µM in test [6]. Moreover, the TGI turned out to be 5.94 µM in test [7], 9.4 µM in test [8], 8.48 µM in [9] and 3.74 µM in test [10].
Turning to `CC#CC(=O)N1CC[C@@H](n2c(=O)n(-c3ccc(Oc4ccccc4)cc3)c3c(N)ncnc32)C1`, the GI50 was 24.2 µM in test [1]; 10.8 µM in test [2]; 35.8 µM in test [3]; 35.8 µM in test [4]; 36.6 µM in test [5]; 40.6 µM in test [6]. Besides, the GI50 is 18.6 µM in test [7], 21.5 µM in [8], 24.8 µM in [9] and 14.8 µM in test [10]. Besides, the TGI in test [1], in test [2], in test [3], in [4], in test [5] and in test [6] was > 100 µM throughout. The TGI in test [7] is 83.4 µM; in test [8] it was > 100 µM; in test [9] it was 98.4 µM; in [10] it was 42.8 µM.
For `Fc1cccc(-c2[nH]nc3nc(Nc4cccnc4)sc23)c1`, the GI50 in test [1] is 1.83 µM; in [2], 95.1 µM; in test [3], 1.01 µM; in [4] it was 17.5 µM; in test [5], 3.3 µM; in test [6], 15.7 µM. In addition, the GI50 was 3.68 µM in test [7], > 100 µM in test [8], 0.595 µM in test [9] and > 100 µM in test [10]. The TGI in [1], in test [2], in [3], in test [4], in test [5] and in test [6] was > 100 µM throughout. The TGI was > 100 µM in test [7], > 100 µM in [8], 51.1 µM in test [9] and > 100 µM in test [10].
In the case of `Cc1ccc2c(c1)C=CC(C#N)N2C(=O)Oc1ccccc1` (centres undefined), the TGI in [1] was 50.6 µM; in test [2], > 100 µM; in [3], 66.4 µM; in test [4], > 100 µM; in test [5], 70.1 µM; in [6], 31.1 µM. Also, the TGI in test [7] is 40 µM; in test [8], > 100 µM; in test [9] it was > 100 µM; in test [10], > 100 µM.
As to `N#Cc1nn(-c2cc(=O)[nH]c3ccc(Br)cc23)c(N)c1C#N`, the GI50 in test [1] was > 100 µM; in [2], > 100 µM; in test [3], 88.1 µM; in test [4], > 100 µM; in test [5] it was > 100 µM; in [6] it was > 100 µM. The GI50 in [7], in [8], in test [9] and in [10] was > 100 µM each time. The TGI in [1], in test [2], in test [3], in test [4], in [5] and in [6] was > 100 µM throughout. Moreover, the TGI in [7], in [8], in test [9] and in test [10] was > 100 µM each time.
Regarding `C=C(C)[C@@H]1CC[C@]2(C(N)=O)CC[C@]3(C)[C@H](CC[C@@H]4[C@@]5(C)C/C(=C/c6cccnc6)[C@H](O)C(C)(C)[C@@H]5CC[C@]43C)[C@@H]12`, the GI50 in [1] is 3.74 µM; in test [2], 3.02 µM; in test [3], 4.61 µM; in test [4], 6.14 µM; in [5], 3.1 µM; in [6], 4.54 µM. Besides, the GI50 in [7] was 4.38 µM; in test [8], 6.24 µM; in [9], 2.22 µM; in test [10] it was 5.38 µM. Further, the TGI was > 100 µM in test [1]; > 100 µM in [2]; > 100 µM in [3]; > 100 µM in test [4]; 12.4 µM in test [5]; > 100 µM in [6]. Moreover, the TGI in test [7] is 37.1 µM; in [8], > 100 µM; in test [9], > 100 µM; in [10], > 100 µM.
As for `C/C(=C\c1ccn(-c2ccc(N)cc2F)n1)[C@@H]1C[C@@H]2O[C@]2(C)CCC[C@H](C)[C@H](O)[C@@H](C)C(=O)C(C)(C)[C@@H](O)CC(=O)O1`, the GI50 in [1] was 0.0921 µM; in [2], 0.176 µM; in [3], 0.0285 µM; in [4] it was 1.05 µM; in test [5] it was 0.0172 µM; in test [6], 0.0408 µM. The GI50 in [7] is 0.0241 µM; in [8] it was 0.0992 µM; in test [9], 0.0169 µM; in test [10], 0.0914 µM. Besides, the TGI was 1.19 µM in test [1]; > 50 µM in test [2]; > 50 µM in test [3]; > 50 µM in test [4]; 0.442 µM in test [5]; > 50 µM in test [6]. For the same compound, the TGI in test [7], in test [8], in test [9] and in test [10] was > 50 µM each time.
As to `COc1ccc2nc(-c3cc4c([nH]c5ccccc54)c(-c4ccc(F)c(F)c4)n3)[nH]c2c1`, the GI50 was 4.22 µM in [1]; 1.46 µM in test [2]; 2.77 µM in test [3]; 12.7 µM in test [4]; 1.88 µM in test [5]; 3.08 µM in test [6]. Also, the GI50 was 2.86 µM in test [7], 10.2 µM in test [8], 2.05 µM in test [9] and 2.76 µM in test [10]. In addition, the TGI in [1] stood at 64.8 µM; in test [2] it was 16.1 µM; in test [3], 10.2 µM; in test [4] it was 27 µM; in [5], 4.66 µM; in [6], 18.1 µM. The TGI came out at 10.8 µM in test [7], 24.9 µM in test [8], 4.11 µM in test [9] and 10.2 µM in test [10].
Consider `COc1cc(N2CCC(N3CCN(C)CC3)CC2)ccc1Nc1ncc(Cl)c(Nc2ccccc2S(=O)(=O)C(C)C)n1`, for which the GI50 was 1.29 µM in test [1]; 1.12 µM in test [2]; 1 µM in [3]; 1.74 µM in test [4]; 0.114 µM in test [5]; 2.1 µM in [6]. Moreover, the GI50 in test [7] was 0.332 µM; in [8], 1.12 µM; in test [9], 0.358 µM; in test [10], 1.18 µM. Also, the TGI in test [1] is 5.75 µM; in [2] it was 2.44 µM; in [3] it was 2.4 µM; in test [4], 3.41 µM; in test [5], 0.469 µM; in test [6] it was 7.76 µM. Moreover, the TGI was found to be 1.47 µM in test [7], 2.44 µM in test [8], 1.64 µM in test [9] and 3.39 µM in test [10].
For the compound `CCN(CC)CC[n+]1cc2cc(OC)c(OC)cc2c2ccc3cc4c(cc3c21)OCO4`, the GI50 in [1] is 3.72 µM; in test [2], 2.61 µM; in test [3] it was 0.308 µM; in [4], 1.48 µM; in test [5], 0.418 µM; in test [6] it was 0.314 µM. Moreover, the GI50 is 0.355 µM in test [7], 0.903 µM in test [8], 0.404 µM in test [9] and 1.22 µM in test [10]. Also, the TGI in test [1] worked out at 22 µM; in [2], 8.6 µM; in [3], 1.29 µM; in test [4] it was 2.93 µM; in test [5], 2.48 µM; in [6], 2.11 µM. For the same compound, the TGI in test [7] amounted to 0.996 µM; in test [8], 3.78 µM; in test [9], 1.66 µM; in test [10], 4.89 µM.
On to `O=C(O)CCSC(=S)Nc1ccc([N+](=O)[O-])cc1`, for which the TGI in test [1], in test [2], in test [3], in [4], in test [5] and in test [6] was > 100 µM in each case. Moreover, the TGI is > 75.7 µM in [7], > 100 µM in [8], > 100 µM in test [9] and 46.7 µM in test [10].
Regarding `Cc1ccc(C2=NN(c3ccc(S(N)(=O)=O)cc3)C(c3cn(-c4ccccc4)nc3-c3ccccc3)C2)cc1` (centres undefined), the GI50 in [1] is 11.1 µM; in test [2] it was 5.38 µM; in [3], 19.6 µM; in [4], 39.2 µM; in test [5], 15.1 µM; in test [6], 7.53 µM. Also, the GI50 was 24.9 µM in test [7], 4.69 µM in test [8], 3.07 µM in test [9] and 32.4 µM in test [10]. Also, the TGI in test [1], in [2], in test [3], in [4], in [5] and in test [6] was > 100 µM throughout. The TGI was > 100 µM in [7], > 100 µM in test [8], 42 µM in [9] and > 100 µM in [10].
In the case of `C=CCSSc1ncnc2c1ncn2C1OC(CO)C(O)C1O` (centres undefined), the GI50 in test [1] was 3.86 µM; in [2] it was 3.63 µM; in test [3], 13.5 µM; in [4], 36.5 µM; in test [5], 2.74 µM; in [6] it was 2.87 µM. For the same compound, the GI50 in [7] is 0.37 µM; in [8], 2.35 µM; in [9], 2.96 µM; in test [10], 1.64 µM. Besides, the TGI in [1] was > 100 µM; in test [2], 16.8 µM; in test [3], > 100 µM; in test [4], > 100 µM; in [5], 13.1 µM; in test [6], > 42.9 µM. Moreover, the TGI is > 78.6 µM in [7], > 86.9 µM in test [8], > 45.4 µM in [9] and > 100 µM in [10].
In the case of `CC(=O)[O][Bi]([c]1ccccc1)[c]1ccccc1`, the GI50 was 19.1 µM in test [1]; 2.08 µM in test [2]; 2.6 µM in test [3]; 2.84 µM in test [5]; 16.4 µM in test [6]; 1.98 µM in test [7]. Also, the results for the GI50 in [8], in test [9] and in test [10] were 2.96 µM, 4.29 µM and 11.6 µM, respectively. Further, the TGI is 37.5 µM in [1]; 7.01 µM in test [2]; 10.9 µM in [3]; 7.27 µM in test [5]; 31 µM in test [6]; 5.24 µM in test [7]. Also, the TGI in [8] worked out at 9.6 µM; in [9], 13.7 µM; in [10], 24.1 µM.
